Target: OfChtI-CAD (Ostrinia furnacalis, UniProt Q2V6H4, E148Q)
Assay: isothermal titration calorimetry, single-site model
Format: binding
Conditions: 50 mM HEPES pH 8.0, 303 K
From the text: isothermal titration calorimetry, single-site model on OfChtI-CAD

Sequence of OfChtI-CAD (Q2V6H4 19-407, stated change not applied): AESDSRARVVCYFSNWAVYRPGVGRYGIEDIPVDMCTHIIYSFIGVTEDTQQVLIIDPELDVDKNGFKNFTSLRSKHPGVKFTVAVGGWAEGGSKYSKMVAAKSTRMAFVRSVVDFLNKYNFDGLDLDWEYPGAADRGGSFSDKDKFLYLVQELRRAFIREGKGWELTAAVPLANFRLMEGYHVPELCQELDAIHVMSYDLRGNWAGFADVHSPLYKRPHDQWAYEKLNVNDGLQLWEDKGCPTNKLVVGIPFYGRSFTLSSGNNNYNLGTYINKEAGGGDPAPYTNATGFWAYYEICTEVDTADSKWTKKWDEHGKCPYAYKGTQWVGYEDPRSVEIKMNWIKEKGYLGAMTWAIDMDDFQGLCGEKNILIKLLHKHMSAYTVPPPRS

Structure (SMILES)	Kd [µM]
CC(=O)N[C@H]1[C@H](O[C@H]2[C@H](O)[C@@H](NC(C)=O)[C@H](O[C@H]3[C@H](O)[C@@H](NC(C)=O)C(O)O[C@@H]3CO)O[C@@H]2CO)O[C@H](CO)[C@@H](O[C@@H]2O[C@H](CO)[C@@H](O[C@@H]3O[C@H](CO)[C@@H](O[C@@H]4O[C@H](CO)[C@@H](O)[C@H](O)[C@H]4NC(C)=O)[C@H](O)[C@H]3NC(C)=O)[C@H](O)[C@H]2NC(C)=O)[C@@H]1O (stereo partly drawn) [(GlcNAc)6, N′,N′′,N′′′,N′′′′,N′′′′′, N′′′′′′-hexaacetylchitohexaose]	0.48 ± 0.09
CC(=O)N[C@H]1[C@H](O[C@H]2[C@H](O)[C@@H](NC(C)=O)[C@H](O[C@H]3[C@H](O)[C@@H](NC(C)=O)C(O)O[C@@H]3CO)O[C@@H]2CO)O[C@H](CO)[C@@H](O[C@@H]2O[C@H](CO)[C@@H](O[C@@H]3O[C@H](CO)[C@@H](O)[C@H](O)[C@H]3NC(C)=O)[C@H](O)[C@H]2NC(C)=O)[C@@H]1O (stereo partly drawn) [(GlcNAc)5]	2 ± 0.2
CC(=O)N[C@H]1[C@H](O[C@H]2[C@H](O)[C@@H](NC(C)=O)C(O)O[C@@H]2CO)O[C@H](CO)[C@@H](O[C@@H]2O[C@H](CO)[C@@H](O[C@@H]3O[C@H](CO)[C@@H](O)[C@H](O)[C@H]3NC(C)=O)[C@H](O)[C@H]2NC(C)=O)[C@@H]1O (stereo partly drawn) [(GlcNAc)4]	11.3 ± 1.5

Source: publication PMC3975886, “Structural characteristics of an insect group I chitinase, an enzyme indispensable to moulting” (Acta Crystallographica Section D: Biological Crystallography, 2014)
